# Marks after values point to notes of the source that are not given here.
# Experiments:
# [1] = system: patients with MS (detrusor hyperreflexia); test: separate study: RTX instillation in patients with MS; format: in vivo, human
# Procedure: A separate study was undertaken with administration of 0.1 μM RTX to a group of 6 patients with MS. […] One patient was bedridden with an indwelling catheter. Despite the catheter, occasional bursts of detrusor hyperreflexia caused explosive expulsions of urine such that urine leaked around the catheter. No urinary dynamic measurements were taken but 100 ml of 1 μM solution was administered. […] The remaining four patients were all on crutches or in wheelchairs. They were on scheduled intermittent self-catheterizations and remained so.
# [2] = system: patients with MS (detrusor hyperreflexia); test: as above; format: in vivo, human; parameters: LVA Lost volume after RTX / CAPA Capacity after RTX: unit not given here
# [3] = system: normal human volunteers and patients with unstable detrusor; conditions: 10^−8M (0.01 μM) RTX intravesicular, cited from earlier work
# [4] = system: rats; conditions: cited from earlier work
# [5] = four MS patients, one month after treatment
structure (smiles),measurement,setting,value
"C=C(C)[C@]12C[C@@H](C)[C@@]34O[C@](Cc5ccccc5)(O[C@@H]1[C@@H]3C=C(COC(=O)Cc1ccc(O)c(OC)c1)C[C@]1(O)C(=O)C(C)=C[C@@H]41)O2 [RTX, resiniferatoxin]",side effects,[1]; even at a dose of 1.0 μM RTX,"No side effects, particularly no meaningful burning or irritation were observed"
same,Capacity,[1]; [5],increased in all patients
same,urine loss pressure,[1]; [5],decreased in all four although minimally in two
same,CAPA Capacity after RTX,"[2]; Patient 6, Dose 500 nM, one month after treatment, CAPB before RTX 200",360
same,DA Drug after RTX,"[2]; Patient 6, Dose 500 nM, one month after treatment, DB before RTX 2",01
same,LVA Lost volume after RTX,"[2]; Patient 6, Dose 500 nM, one month after treatment, LVB before RTX 60",10
same,ULPA Urine loss pressure after RTX,"[2]; Patient 6, Dose 500 nM, one month after treatment, ULPB before RTX 96",40
same,LVA Lost volume after RTX,"[2]; Patient 7 (stress incontinent), Dose 500 nM, one month after treatment, LVB 100",80*
same,CAPA Capacity after RTX,"[2]; Patient 7, Dose 500 nM, one month after treatment, CAPB 180",750
same,DA Drug after RTX,"[2]; Patient 7, Dose 500 nM, one month after treatment, DB 2",1
same,ULPA Urine loss pressure after RTX,"[2]; Patient 7, Dose 500 nM, one month after treatment, ULPB 63",36
same,CAPA Capacity after RTX,"[2]; Patient 9, Dose 1000 nM, one month after treatment, CAPB 100",300
same,DA Drug after RTX,"[2]; Patient 9, Dose 1000 nM, one month after treatment, DB 2",2
same,LVA Lost volume after RTX,"[2]; Patient 9, Dose 1000 nM, one month after treatment, LVB 180",0
same,ULPA Urine loss pressure after RTX,"[2]; Patient 9, Dose 1000 nM, one month after treatment, ULPB 32",30
same,CAPA Capacity after RTX,"[2]; Patient 10, Dose 1000 nM, one month after treatment, CAPB 280",460
same,DA Drug after RTX,"[2]; Patient 10, Dose 1000 nM, one month after treatment, DB 2",2
same,LVA Lost volume after RTX,"[2]; Patient 10, Dose 1000 nM, one month after treatment, LVB 180",0
same,ULPA Urine loss pressure after RTX,"[2]; Patient 10, Dose 1000 nM, one month after treatment, ULPB 46",44
same,urge and leakage around indwelling catheter,"[2]; bedridden MS patient, 100 ml of 1 μM solution, six weeks",no urge and no leakage
same,Urinary loss,[2]; [5],decreased after instillation of RTX in all four patients
same,sensations upon administration,[3]; human subjects,no micturition reflex or burning upon administration
same,volume required to elicit first desire to void,[3]; patients having unstable detrusor,Three of five patients having unstable detrusor reported an increased volume
same,pain upon intravesical administration,[4],pain induced by intravesical administration of RTX
